We go through two compounds from PMC6337512 (Molecules, 2018).

For data set [1] the following is noted: solutions in culture media RPMI.
Data set [2] is described as follows: Permeability and diffusion in Franz diffusion cells through PES-U membrane.
The nature of data set [3]: Solubility of APIs and THEDES in PBS, excess added, 24 h stirring, UV spectroscopy. The format is physicochemical. The settings on record: aqueous buffer, thermodynamic from solid; PBS (pH 7.4), 37 °C.
Experimental: The solubility studies were made with the pure APIs and THEDES. For performing these assays were used a PBS solution, and was added an excess of API and THEDES to this solution, place at 37 °C, under stirring for 24 h, for simulate physiological conditions. The determination of the API solubility was made by UV spectroscopy in 1 mL quartz cuvettes, using a Lambda 35 UV/VIS spectrometer (PerkinElmer, Villepinte, France) and the PerkinElmer UV WinLab software (PerkinElmer, Villepinte, France). […] The calibration curve was made using the respective APIs as standard for quantification.

Structures are written as SMILES. In brackets after ≈: the same amount, converted by molar mass.

In the case of `N=C(N)NCCC[C@H](N)C(=O)O` [L-Arginine, L-arginine], in data set [1], the pH is on record as 10.43.
By Papp is commonly meant a coefficient for how fast a substance crosses the barrier. Read a high Papp as fast passage. In general, solubility refers to the concentration that dissolves in the medium under given conditions. Read a low solubility as little dissolved substance. For `CC[C@@H](CO)NCCN[C@@H](CC)CO` [Ethambutol, ethambutol], the Papp at 180 min in data set [2] was 819 ± 30.6 ×10⁻⁶ cm/s. The pH in data set [1] worked out at 6.21. Also, the concentration in solution in data set [3] (solubility at 24 h) came to 4640 ± 70 µg/mL (≈ 22.7 mM).
